# Paper PMC7561186, “Rational design of balanced dual-targeting antibiotics with limited resistance” (PLoS Biology, 2020)
# Read-outs that look alike come from different tables or passages of the source.
# Test system: S. aureus clinical isolates
# Experiment: microbe, parasite or virus in culture
# Format: cell-based
# Conditions: Staphylococcus aureus, read-out: MIC
structure (smiles),measurement,setting,value
C[C@H]1COc2c(N3CCN(C)CC3)c(F)cc3c(=O)c(C(=O)O)cn1c23 [Levofloxacin],MIC,"ATCC 29213 / MSSA, S. aureus ATCC 29213, MSSA / VSSA, test date 2018-10-25 (three repeat lines)",0.25 µg/mL
same,MIC,"ATCC 29213 / MSSA, S. aureus ATCC 29213, MSSA / VSSA, test date 2018-11-07",0.25 µg/mL
same,MIC,"MRSA / NRS 3 / VISA, S. aureus IHMA 1308243, NRS3, MRSA / VISA",32 µg/mL
same,MIC,"MRSA / NRS 4 / VISA, S. aureus IHMA 649380, NRS4, MRSA / VISA",16 µg/mL
same,MIC,"MRSA / NRS 18 / VISA, S. aureus IHMA 649386, NRS18, MRSA / VISA",16 µg/mL
same,MIC,"MRSA / NRS 19 / VISA, S. aureus IHMA 649387, NRS19, MRSA / VISA",32 µg/mL
same,MIC,"MRSA / NRS 21 / VISA, S. aureus IHMA 649388, NRS21, MRSA / VISA",8 µg/mL
same,MIC,"MRSA / NRS 22 / USA600 / VISA, S. aureus IHMA 649389, NRS22, MRSA / VISA, USA600",16 µg/mL
same,MIC,"MRSA / NRS 23 / VISA, S. aureus IHMA 649390, NRS23, MRSA / VISA",16 µg/mL
same,MIC,"MRSA / NRS 24 / VISA, S. aureus IHMA 649391, NRS24, MRSA / VISA",64 µg/mL
same,MIC,"MRSA / NRS 26, S. aureus IHMA 649392, NRS26, MRSA / VSSA",8 µg/mL
same,MIC,"MRSA / NRS 27 / VISA, S. aureus IHMA 1308248, NRS27, MRSA / VISA",32 µg/mL
same,MIC,"MRSA / NRS 29 / VISA, S. aureus IHMA 1308250, NRS29, MRSA / VISA",16 µg/mL
same,MIC,"MRSA / NRS 37 / VISA, S. aureus IHMA 1308251, NRS37, MRSA / VISA",32 µg/mL
same,MIC,"MRSA / NRS 54, S. aureus IHMA 1308253, NRS54, MRSA / VSSA* (*Expected VAN intermediate, confirmed VAN susceptible twice), test date 2018-11-07",8 µg/mL
same,MIC,"MRSA / NRS 56 / VISA, S. aureus IHMA 1308254, NRS56, MRSA / VISA",8 µg/mL
same,MIC,"MRSA / USA100 / VRSA, S. aureus IHMA 672230, VRS1, MRSA / VRSA, USA100",32 µg/mL
same,MIC,"MRSA / USA100 / VRSA, S. aureus IHMA 672231, VRS2, MRSA / VRSA, USA100",32 µg/mL
same,MIC,"MRSA / USA100 / VRSA, S. aureus IHMA 672234, VRS4, MRSA / VRSA, USA100",> 64 µg/mL
same,MIC,"MRSA / USA100 / VRSA, S. aureus IHMA 672235, VRS5, MRSA / VRSA, USA100",64 µg/mL
same,MIC,"MRSA / USA100 / VRSA, S. aureus IHMA 672237, VRS7, MRSA / VRSA, USA100",64 µg/mL
same,MIC,"MRSA / USA100 / VRSA, S. aureus IHMA 672238, VRS8, MRSA / VRSA, USA100",16 µg/mL
same,MIC,"MRSA / USA100 / VRSA, S. aureus IHMA 672239, VRS9, MRSA / VRSA, USA100",64 µg/mL
same,MIC,"MRSA / USA100 / VRSA, S. aureus IHMA 1308256, VRS10, MRSA / VRSA, USA100",> 64 µg/mL
same,MIC,"MRSA / USA100 / VRSA, S. aureus IHMA 1308258, VRS11b, MRSA / VRSA, USA100",> 64 µg/mL
same,MIC,"MRSA / USA800 / VRSA, S. aureus IHMA 672233, VRS3b, MRSA / VRSA, USA800",16 µg/mL
same,MIC,"MRSA, S. aureus IHMA 1569509, MRSA / VSSA",4 µg/mL
same,MIC,"MRSA, S. aureus IHMA 1575268, MRSA / VSSA",32 µg/mL
same,MIC,"MRSA, S. aureus IHMA 1575629, MRSA / VSSA",8 µg/mL
same,MIC,"MRSA, S. aureus IHMA 1577820, MRSA / VSSA",> 64 µg/mL
same,MIC,"MRSA, S. aureus IHMA 1580300, MRSA / VSSA",16 µg/mL
same,MIC,"MRSA, S. aureus IHMA 1580940, MRSA / VSSA",0.5 µg/mL
same,MIC,"MRSA, S. aureus IHMA 1582100, MRSA / VSSA",32 µg/mL
same,MIC,"MRSA, S. aureus IHMA 1583795, MRSA / VSSA",32 µg/mL
same,MIC,"MRSA, S. aureus IHMA 1584223, MRSA / VSSA",8 µg/mL
same,MIC,"MRSA, S. aureus IHMA 1585316, MRSA / VSSA",32 µg/mL
same,MIC,"MRSA, S. aureus IHMA 1586780, MRSA / VSSA",16 µg/mL
same,MIC,"MRSA, S. aureus IHMA 1587322, MRSA / VSSA",0.25 µg/mL
same,MIC,"MRSA, S. aureus IHMA 1588127, MRSA / VSSA",16 µg/mL
same,MIC,"MRSA, S. aureus IHMA 1591462, MRSA / VSSA",32 µg/mL
same,MIC,"MRSA, S. aureus IHMA 1592755, MRSA / VSSA",16 µg/mL
same,MIC,"MRSA, S. aureus IHMA 1592776, MRSA / VSSA",0.25 µg/mL
same,MIC,"MRSA, S. aureus IHMA 1597106, MRSA / VSSA",16 µg/mL
same,MIC,"MRSA, S. aureus IHMA 1602095, MRSA / VSSA",0.25 µg/mL
same,MIC,"MRSA, S. aureus IHMA 1611170, MRSA / VSSA",0.25 µg/mL
same,MIC,"MRSA, S. aureus IHMA 1611612, MRSA / VSSA",32 µg/mL
same,MIC,"MRSA, S. aureus IHMA 1612228, MRSA / VSSA",8 µg/mL
same,MIC,"MRSA, S. aureus IHMA 1620441, MRSA / VSSA",32 µg/mL
same,MIC,"MRSA, S. aureus IHMA 1621638, MRSA / VSSA",0.25 µg/mL
same,MIC,"MRSA, S. aureus IHMA 1622252, MRSA / VSSA",16 µg/mL
same,MIC,"MRSA, S. aureus IHMA 1622527, MRSA / VSSA",0.25 µg/mL
same,MIC,"MRSA, S. aureus IHMA 1666371, MRSA / VSSA",> 64 µg/mL
same,MIC,"MRSA, S. aureus IHMA 1695391, MRSA / VSSA",> 64 µg/mL
same,MIC,"MRSA, S. aureus IHMA 1703428, MRSA / VSSA",0.25 µg/mL
same,MIC,"MRSA, S. aureus IHMA 1720350, MRSA / VSSA",0.25 µg/mL
same,MIC,"MRSA, S. aureus IHMA 1732989, MRSA / VSSA",64 µg/mL
same,MIC,"MRSA, S. aureus IHMA 1742231, MRSA / VSSA",> 64 µg/mL
same,MIC,"MRSA, S. aureus IHMA 1766357, MRSA / VSSA",16 µg/mL
same,MIC,"MSSA / NRS 12 / VISA, S. aureus IHMA 1308244, NRS12, MSSA / VISA",0.5 µg/mL
same,MIC,"MSSA / NRS 13 / VISA, S. aureus IHMA 1308245, NRS13, MSSA / VISA",0.5 µg/mL
same,MIC,"MSSA / NRS 14 / VISA, S. aureus IHMA 1308246, NRS14, MSSA / VISA",0.5 µg/mL
same,MIC,"MSSA / NRS 17 / VISA, S. aureus IHMA 1308247, NRS17, MSSA / VISA",16 µg/mL
same,MIC,"MSSA / NRS 28 / VISA, S. aureus IHMA 1308249, NRS28, MSSA / VISA",32 µg/mL
same,MIC,"MSSA / NRS 52, S. aureus IHMA 1308252, NRS52, MSSA / VSSA* (*Expected VAN intermediate, confirmed VAN susceptible twice), test date 2018-11-07",0.25 µg/mL
same,MIC,"MSSA / USA100 / VRSA, S. aureus IHMA 672236, VRS6, MSSA / VRSA, USA100",32 µg/mL
same,MIC,"MSSA, S. aureus IHMA 1563826, MSSA / VSSA",0.25 µg/mL
same,MIC,"MSSA, S. aureus IHMA 1565492, MSSA / VSSA",0.25 µg/mL
same,MIC,"MSSA, S. aureus IHMA 1569499, MSSA / VSSA",0.25 µg/mL
same,MIC,"MSSA, S. aureus IHMA 1569754, MSSA / VSSA",16 µg/mL
same,MIC,"MSSA, S. aureus IHMA 1574202, MSSA / VSSA",0.25 µg/mL
same,MIC,"MSSA, S. aureus IHMA 1575652, MSSA / VSSA",0.25 µg/mL
same,MIC,"MSSA, S. aureus IHMA 1575779, MSSA / VSSA",0.25 µg/mL
same,MIC,"MSSA, S. aureus IHMA 1576329, MSSA / VSSA",0.25 µg/mL
same,MIC,"MSSA, S. aureus IHMA 1577800, MSSA / VSSA",0.25 µg/mL
same,MIC,"MSSA, S. aureus IHMA 1578560, MSSA / VSSA",0.25 µg/mL
same,MIC,"MSSA, S. aureus IHMA 1580233, MSSA / VSSA",0.25 µg/mL
same,MIC,"MSSA, S. aureus IHMA 1580925, MSSA / VSSA",0.25 µg/mL
same,MIC,"MSSA, S. aureus IHMA 1580955, MSSA / VSSA",0.25 µg/mL
same,MIC,"MSSA, S. aureus IHMA 1582586, MSSA / VSSA",0.5 µg/mL
same,MIC,"MSSA, S. aureus IHMA 1582691, MSSA / VSSA",0.25 µg/mL
same,MIC,"MSSA, S. aureus IHMA 1584230, MSSA / VSSA",0.25 µg/mL
same,MIC,"MSSA, S. aureus IHMA 1587279, MSSA / VSSA",0.25 µg/mL
same,MIC,"MSSA, S. aureus IHMA 1591459, MSSA / VSSA",16 µg/mL
same,MIC,"MSSA, S. aureus IHMA 1592749, MSSA / VSSA",0.25 µg/mL
same,MIC,"MSSA, S. aureus IHMA 1592751, MSSA / VSSA",0.25 µg/mL
same,MIC,"MSSA, S. aureus IHMA 1594297, MSSA / VSSA",0.25 µg/mL
same,MIC,"MSSA, S. aureus IHMA 1597120, MSSA / VSSA",0.25 µg/mL
same,MIC,"MSSA, S. aureus IHMA 1597125, MSSA / VSSA",0.25 µg/mL
same,MIC,"MSSA, S. aureus IHMA 1599157, MSSA / VSSA",0.25 µg/mL
same,MIC,"MSSA, S. aureus IHMA 1599506, MSSA / VSSA",0.25 µg/mL
same,MIC,"MSSA, S. aureus IHMA 1602078, MSSA / VSSA",32 µg/mL
same,MIC,"MSSA, S. aureus IHMA 1604586, MSSA / VSSA",0.25 µg/mL
same,MIC,"MSSA, S. aureus IHMA 1604609, MSSA / VSSA",0.25 µg/mL
same,MIC,"MSSA, S. aureus IHMA 1609919, MSSA / VSSA",0.25 µg/mL
same,MIC,"MSSA, S. aureus IHMA 1622864, MSSA / VSSA",0.25 µg/mL
same,MIC,"MSSA, S. aureus IHMA 1626392, MSSA / VSSA",0.25 µg/mL
same,MIC,"MSSA, S. aureus IHMA 1713793, MSSA / VSSA",0.25 µg/mL
